This assay concerns the target T1, human PAD4 (Homo sapiens, UniProt Q9UM07).
T1 construct: human PAD4 (NM_012387), A2-P663, was PCR amplified; His-SUMO (N, cleaved yes); made in house; host or cells: E. coli BL21(DE3)
As to the kind of experiment: In vitro PAD4 BAEE biochemical assay. Conditions: BAEE substrate 3 mM, 5 nM PAD4, 2 mM calcium chloride; geometric mean of multiple experiments. A digest of the protocol:
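PAD4 5 nM, CaCl2 2 mM, BAEE 3 mM final; 50 mM MOPS pH 7.6, 50 mM NaCl, 0.05% Tween-20, 2 mM DTT. Cpd + enzyme 30 min 25 °C; substrate 2 h 25 °C; EDTA stop; OPA detection 1 h. IC50 4-parameter fit.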

As a reminder, the IC50 is the concentration at which inhibition is half-maximal.

T1 sequence (Q9UM07 2-663): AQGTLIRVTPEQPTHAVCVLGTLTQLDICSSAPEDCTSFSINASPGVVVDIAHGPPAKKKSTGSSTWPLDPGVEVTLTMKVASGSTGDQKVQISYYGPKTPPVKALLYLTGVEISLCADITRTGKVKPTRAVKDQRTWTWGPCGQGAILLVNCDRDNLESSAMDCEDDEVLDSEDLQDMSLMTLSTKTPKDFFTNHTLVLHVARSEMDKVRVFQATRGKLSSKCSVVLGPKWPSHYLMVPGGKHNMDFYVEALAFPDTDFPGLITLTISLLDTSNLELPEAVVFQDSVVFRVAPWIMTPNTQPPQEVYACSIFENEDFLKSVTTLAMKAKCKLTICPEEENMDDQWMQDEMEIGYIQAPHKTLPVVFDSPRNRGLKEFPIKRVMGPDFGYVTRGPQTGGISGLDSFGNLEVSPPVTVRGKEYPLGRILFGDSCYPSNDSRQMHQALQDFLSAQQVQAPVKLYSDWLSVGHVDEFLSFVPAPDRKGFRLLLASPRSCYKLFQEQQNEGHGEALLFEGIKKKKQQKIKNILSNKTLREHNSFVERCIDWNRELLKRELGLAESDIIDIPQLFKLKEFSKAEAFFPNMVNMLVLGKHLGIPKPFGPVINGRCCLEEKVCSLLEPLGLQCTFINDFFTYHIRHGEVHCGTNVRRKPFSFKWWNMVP

Consider `COc1cc(C(=O)N2C[C@H](N)[C@@H]3CC[C@H]2C3)cc2nc(-c3cc4ccc5nc4n3CCCCCc3cc4ccccc4nc3C(=O)N[C@@H]5C)n(C)c12` [Example 461, (2~{R})-21-[5-[(1~{S},4~{R},5~{R})-4-amino-2-azabicyclo[3.2.1]octane-2-carbonyl]-7-methoxy-1-methyl-benzimidazol-2-yl]-2-methyl-3,6,20,26-tetrazapentacyclo[18.5.2.0^ {5,14}.0^{7,12}.0^ {23,27}]heptacosa-1(26),5(14),6,8,10,12,21,23(27),24-nonaen-4-one], for which the IC50 was determined as 51 nM.
The result for `COc1cc(C(=O)N2C[C@H](N)[C@@H]3CC[C@H]2C3)cc2nc(-c3cc4ccc5nc4n3CCCCCc3cc(C(F)F)ccc3C(=O)N[C@@H]5C)n(C)c12` [Example 896, (2~{R})-17-[5-[(1~{S),4~{R},5~ {R})-4-amino-2-azabicyclo [3.2.1]octane-2-carbonyl]-7-methoxy-1-methyl-benzimidazol-2-yl]-8-(difluoromethyl)-2-methyl-3,16,22-triazatetracyclo [14.5.2.0^{5,10}.0^{19,23}] tricosa-1(22),5(10),6,8,17,19(23), 20-heptaen-4-one] reads 56 nM; that for `COc1cc(C(=O)N2CCC[C@@H](N)C2)cc2nc(-c3cc4ccc5nc4n3C[C@@H]3C[C@H]3CCCCC(=O)N[C@@H]5C)n(C)c12` [Example 269, (3~{R},5~{R},12~{R})-18-[5-[(3~{R})-3-aminopiperidine-1-carbonyl]-7-methoxy-1-methyl-benzimidazol-2-yl]-12-methyl-1,11,20-triazatetracyclo[11.5.2.0^{3,5}.0^{16,19}] icosa-13(20),14,16(19),17-tetraen-10-one], 36 nM; that for `COc1cc(C(=O)N2CC[C@@H](OCC34CC(F)(C3)C4)[C@@H](N)C2)cc2nc(-c3cc4ccc5nc4n3CCCCC[C@@H]3C[C@H]3C(=O)N[C@@H]5C)n(C)c12` [Example 494], 136 nM.
The result for `CO[C@@H]1CCN(C(=O)c2cc(OC(F)F)c3c(c2)nc(-c2cc4ccc5nc4n2CCCCC[C@@H]2C[C@H]2C(=O)N[C@@H]5C)n3C)C[C@@H]1N` [Example 511, (2~{R},5~{R}, 7~{R})-14-[5-[(3~{S},4~{R})-3-amino-4-methoxy-piperidine-1-carbonyl]-7-(difluoromethoxy)-1-methyl-benzimidazol-2-yl]-2-methyl-3,13,19-triazatetracyclo[11.5.2.0^ {5,7}.0^{16,20}] icosa-1(19),14,16(20), 17-tetraen-4-one] reads 95 nM; that for `COc1cc(C(=O)N2C[C@H]3C[C@@H]2[C@@H]3N)cc2nc(-c3cc4ccc5nc4n3CCCCCCC(C)(C)C(=O)N[C@@H]5C)n(C)c12` [Example 667, (11~{R})-17-[5-[(1~{R},4~ {R},5~{R})-5-amino-2-azabicyclo[2.1.1]hexane-2-carbonyl]-7-methoxy-1-methyl-benzimidazol-2-yl]-8,8,11-trimethyl-1,10,19-triazatricyclo[10.5.2.0^ {15,18}]nonadeca-12(19), 13,15(18),16-tetraen-9-one], 70 nM.
The result for `COc1cc(C(=O)N2CC[C@@H](OC)[C@@H](N)C2)cc2nc(-c3cc4ccc5nc4n3CCCCCc3nc4ccccc4nc3C(=O)N[C@@H]5C)n(C)c12` [Example 414, (2~{R})-21-[5-[(3~{S},4~{R})-3-amino-4-methoxy-piperidine-1-carbonyl]-7-methoxy-1-methyl-benzimidazol-2-yl]-2-methyl-3,6,13,20,26-pentazapentacyclo[18.5.2.0^{5,14).0^{7, 12}.0^{23,27}]heptacosa-1(26),5(14),6,8,10,12,21,23(27),24-nonaen-4-one] reads 125 nM; that for `COc1cc(C(=O)N2C[C@H](N)[C@@H]3CC[C@H]2C3)cc2nc(-c3cc4ccc5nc4n3CCCCCc3cc(F)c(F)cc3C(=O)N[C@@H]5C)n(C)c12` [Example 927, (2~{R})-17-[5-[(1~{S},4~{R}, 5~{R})-4-amino-2-azabicyclo [3.2.1]octane-2-carbonyl]-7-methoxy-1-methyl-benzimidazol-2-yl]-7,8-difluoro-2-methyl-3,16,22-triazatetracyclo[14.5.2.0^ {5,10}.0^{19,23}]tricosa-1(22),5(10),6,8,17,19(23),20-heptaen-4-one], 49 nM; that for `COc1cc(C(=O)N2CCC[C@@H](N)C2)cn2nc(-c3cc4ccc5nc4n3CCCCCCC(C)(C)C(=O)N[C@@H]5C)c(C)c12` [Example 27, (11~{R})-17-[6-[(3~{R})-3-aminopiperidine-1-carbonyl]-4-methoxy-3-methyl-pyrazolo[1,5-a]pyridin-2-yl]-8,8,11-trimethyl-1,10,19-triazatricyclo[10.5.2.0^{15,18}]nonadeca-12(19),13,15(18),16-tetraen-9-one], 201 nM.
In the case of `COc1cc(C(=O)N2[C@H]3CC[C@@H]2[C@H](N)C3)cc2nc(-c3cc4ccc5nc4n3CCCCC[C@H](OC)CC(=O)N[C@@H]5C)c(C)n12` [Example 332, (7~{S},11~{R})-17-[7-[(1~{R},2~{R},4~{S})-2-amino-7-azabicyclo[2.2.1]heptane-7-carbonyl]-5-methoxy-3-methyl-imidazo[1,2-a]pyridin-2-yl]-7-methoxy-11-methyl-1,10,19-triazatricyclo[10.5.2.0^{15,18}]nonadeca-12(19),13,15(18),16-tetraen-9-one], the IC50 came out at 20 nM.
Consider `COc1cc(C(=O)N2CCC[C@@H](N)C2)cc2nc(-c3cc4ccc5nc4n3CCCCCCNC(=O)c3c-5ccnc3F)n(C)c12` [Example 56, 17-[5-[(3~{R})-3-aminopiperidine-1-carbonyl]-7-methoxy-1-methyl-benzimidazol-2-yl]-6-fluoro-5,9,16,22-tetrazatetracyclo[14.5.2.0^{2,7}.0^{19,23}] tricosa-1(22),2,4,6,17,19(23),20-heptaen-8-one], for which the IC50 amounted to 193 nM.
On to `COc1cc(C(=O)N2CCC[C@@H](N)C2)cc2nc(-c3cc4ccc5nc4n3CCCCC[C@@H]3C[C@H]3C(=O)N[C@@H]5C)n(C)c12` [Example 157, (2~{R},5~{R},7~{R})-14-[5-[(3~{R})-3-aminopiperidine-1-carbonyl]-7-methoxy-1-methyl-benzimidazol-2-yl]-2-methyl-3,13,19-triazatetracyclo[11.5.2.0^{5,7}.0^{16,20}] icosa-1(19),14,16(20),17-tetraen-4-one], for which the half-inhibitory concentration (IC50) worked out at 36 nM.
The value for `CCn1c(-c2cc3ccc4nc3n2CCCCCc2nc(Cl)ccc2C(=O)N[C@@H]4C)nc2cc(C(=O)N3C[C@H](N)[C@@H]4CC[C@H]3C4)cc(F)c21` [Example 939, (2~{R})-17-[5-[(1~{S),4~{R}, 5~{R})-4-amino-2-azabicyclo [3.2.1]octane-2-carbonyl]-1-ethyl-7-fluoro-benzimidazol-2-yl]-8-chloro-2-methyl-3,9,16,22-tetrazatetracyclo[14.5.2.0^ {5,10}.0^{19,23}]tricosa-1(22),5(10),6,8,17,19(23),20-heptaen-4-one] was 44 nM; that for `COC[C@H]1CCN(C(=O)c2cc(OC)c3c(c2)nc(-c2cc4ccc5nc4n2CCCCCCC(C)(C)C(=O)N[C@@H]5C)n3C)C[C@@H]1N` [Example 677, (11~{R})-17-[5-[(3~ {R},4~{S})-3-amino-4-(methoxymethyl)piperidine-1-carbonyl]-7-methoxy-1-methyl-benzimidazol-2-yl]-8,8,11-trimethyl-1,10,19-triazatricyclo [10.5.2.0^{15,18}] nonadeca-12(19),13,15 (18),16-tetraen-9-one] was 82 nM; that for `C[C@H]1NC(=O)[C@@H]2C[C@H]2C/C=C/CCn2c(-c3nc4cc(C(=O)N[C@H]5CNCC[C@@H]5F)cc(C(F)(F)F)c4n3C)cc3ccc1nc32` [Example 561, ~{N}-[(3~{S},4~{S})-4-fluoro-3-piperidyl]-1-methyl-2-[(2~{R},5~{R}, 7~{R},9~{E})-2-methyl-4-oxo-3,13,19-triazatetracyclo [11.5.2.0^{5,7}.0^{16,20}]icosa-1(19),9,14,16(20), 17-pentaen-14-yl]-7-(trifluoromethyl) benzimidazole-5-carboxamide] was 523 nM.
For `C[C@H]1NC(=O)C(C)(C)CCCCCCn2c(-c3nc4cc(C(=O)N[C@@H]5CCCNC5)c(F)cc4n3C3CC3)cc3ccc1nc32` [Example 176, 1-cyclopropyl-6-fluoro-~{N}-[(3~{R})-3-piperidyl]-2-[(11~{R})-8,8,11-trimethyl-9-oxo-1,10,19-triazatricyclo[10.5.2.0^{15,18}]nonadeca-12(19),13,15(18),16-tetraen-17-yl]benzimidazole-5-carboxamide], the IC50 was 196 nM.
Take `C[C@H]1NC(=O)[C@@H]2C[C@H]2CCCCCn2c(-c3nc4cc(C(=O)N5C[C@H](N)[C@@H]6CC[C@H]5C6)cc(OC(F)F)c4n3C)cc3ccc1nc32` [Example 763, (2~{R},5~{R},7~{R})-14-[5-[(1~{S},4~{R},5~{R})-4-amino-2-azabicyclo[3.2.1]octane-2-carbonyl]-7-(difluoromethoxy)-1-methyl-benzimidazol-2-yl]-2-methyl-3,13,19-triazatetracyclo[11.5.2.0^ {5,7}.0^{16,20}]icosa-1(19),14,16(20),17-tetraen-4-one]: the IC50 is 13 nM.
The value for `COc1cc(C(=O)N2CC[C@H]3CCCN[C@H]3C2)cc2nc(-c3cc4ccc5nc4n3CCCCCCC3(CC3)C(=O)N[C@@H]5C)n(C)c12` [Example 260, (11~{R})-17-[5-[(4~{a}~{R},8~{a}~{R})-2,3,4,4~{a},5,6,8,8~{a}-octahydro-1~{H}-1,7-naphthyridine-7-carbonyl]-7-methoxy-1-methyl-benzimidazol-2-yl]-11-methyl-spiro[1,10,19-triazatricyclo[10.5.2.0^{15,18}]nonadeca-12(19),13,15(18),16-tetraene-8,1′-cyclopropane]-9-one] was 453 nM.

Source of the values: patent publication US11976083B2, “Inhibitors of peptidylarginine deiminases” (Gilead Sciences, Inc., priority 2020, dated 2024).
